Measurements published in patent US20230331718A1, “COMPOSITIONS FOR MODULATING SPLICING” (Skyhawk Therapeutics, Inc., priority 2020, published 2023).
pEC50, pIC50: −log10 of the molar value.

Legend:
[1] = system: SMN2 Splicing D7 (SMN Δ7 transcript); experiment: SMN Quantitative Splicing Assay (qPCR); assay type: cell-based, human; conditions: 24 h, SMA patient fibroblasts (GM03813), 2.5 µM to 0.6 nM
Experimental: Spinal muscular atrophy (SMA) patient fibroblasts (GM03813, Coriell) were plated in 96-well plates at 50,000 cells/well. […] Treated cells were lysed and cDNA synthesized using the Fast Advanced Cells-to-Ct kit (Thermofisher A35378) according to the manufacturer’s instructions. 2 µL of each cDNA were used in qPCR reactions. […] Reactions were run in a Quant Studio 6 qPCR instrument with default settings.

[2] = system: SMN2 Protein; experiment: SMN Protein Assay (MSD); assay type: cell-based, human; conditions: SMA patient fibroblasts, 48 hours, 0.6 nM to 2.5 µM
Experimental: Spinal muscular atrophy (SMA) patient fibroblasts were plated in 96-well plates at 7,000 cells/well. Compounds were added in concentrations ranging from 0.6 nM to 2.5 µM, incubated for 48 hours and the cells were lysed with 100 µL of lysis buffer. 20 µL of lysate was used for SMN protein measurement by Mesoscale Discovery (MSD) assay developed by PharmOptima (Michigan). A standard curve prepared with SMN protein ranging from 1 µg/ml to 19.5pg/ml was used in each MSD plate to calculate the absolute SMN protein amount in each sample.

SMILES	pIC50 ([1]; Homo sapiens, Fibroblast)	pEC50 [2]	pIC50 [1]
CCn1ccc2cc(O)c(-c3ncc(N(C)[C@@H]4C[C@H]5CCC(N5)[C@@H]4F)nn3)cc2c1=O [Compound 83]	6.30 to 7.00	7.30 to 7.80	–
CN(c1cnc(-c2cc3ccn(C)c(=O)c3cc2O)nn1)[C@H]1C[C@@H]2CC[C@@](C)(N2)[C@H]1F [Compound 171]	7.82 to 11.00	7.82 to 11.00	–
CN(c1cnc(-c2cc3c(=O)ccoc3cc2O)nn1)[C@@H]1CC2CCCC(N2)[C@@H]1F (stereo partly shown) [Compound 109]	5.00 to 6.30	5.00 to 6.30	–
Cc1coc2cc(-c3ncc(N(C)C4CC5CCC(N5)[C@@H]4F)nn3)c(O)cc2c1=O (stereo partly shown) [Compound 27]	7.82 to 11.00	7.82 to 11.00	–
CN(c1cnc(-c2cc3c(=O)n(C)cnc3cc2O)nn1)C1CC2CCC(N2)[C@H]1F (stereo partly shown) [Compound 139]	7.30 to 7.80	7.82 to 11.00	–
CN(c1cnc(-c2cc3oc(C(F)(F)F)cc(=O)c3cc2O)nn1)[C@@H]1CC2CCCC(N2)[C@@H]1F (stereo partly shown) [Compound 161]	7.00 to 7.29	7.82 to 11.00	–
CN(c1cnc(-c2cc3oc(C(F)(F)F)cc(=O)c3cc2O)nn1)[C@H]1C[C@@H]2CCC(N2)[C@H]1F [Compound 80]	7.82 to 11.00	7.82 to 11.00	–
CN(c1cnc(-c2cc3ncn(C)c(=O)c3cc2O)nn1)C1CC2CCCC(N2)C1F (stereo not shown) [Compound 123]	7.82 to 11.00	7.82 to 11.00	–
CN(c1cnc(-c2cc3ccn(C)c(=O)c3cc2O)nn1)C1CC2CC(F)(F)C(C1)N2 (stereo not shown) [Compound 142]	–	7.82 to 11.00	7.30 to 7.80
Cc1coc2cc(-c3ncc(N(C)C4CC5CCC(N5)[C@H]4F)nn3)c(O)cc2c1=O (stereo partly shown) [Compound 28]	7.82 to 11.00	7.82 to 11.00	–
Cc1nc2cc(O)c(-c3ncc(N(C)[C@H]4C[C@]5(C)CC[C@@](C)(N5)[C@H]4F)nn3)cc2nc1C [Compound 87]	7.82 to 11.00	7.82 to 11.00	–
CN(c1cnc(-c2cc3cnn(C)c(=O)c3cc2O)nn1)C1CC2CCCC(N2)C1F (stereo not shown) [Compound 132]	–	7.00 to 7.29	7.30 to 7.80
CN(c1cnc(-c2cc3cnccc3cc2O)nn1)[C@@H]1CC2CCC(N2)[C@@H]1F (single isomer, unassigned) [Compound 5A]	6.30 to 7.00	6.30 to 7.00	–
CN(c1cnc(-c2cc3c(F)cn(C)c(=O)c3cc2O)nn1)[C@@H]1CC2CC(F)(F)C(C1)N2 (stereo partly shown) [Compound 209]	7.00 to 7.29	6.30 to 7.00	–
CN(c1cnc(-c2cc3ccn(C)c(=O)c3cc2O)nn1)[C@@H]1C[C@H]2CCC(N2)[C@@H]1F [Compound 7B]	7.30 to 7.80	7.82 to 11.00	–
CN(c1cnc(-c2cc3cnn(C)c(=O)c3cc2O)nn1)[C@@H]1CC2CCC(N2)[C@@H]1F (single isomer, unassigned) [Compound 2A]	7.82 to 11.00	7.82 to 11.00	–
CN(c1cnc(-c2cc3c(F)cn(C)c(=O)c3cc2O)nn1)[C@H]1C[C@]2(C)CCC(N2)[C@H]1F [Compound 38]	7.82 to 11.00	7.82 to 11.00	–
CN(c1cnc(-c2cc3cnn(C)c(=O)c3cc2O)nn1)[C@H]1C[C@]2(C)CCC(N2)[C@H]1F [Compound 185]	7.82 to 11.00	7.82 to 11.00	–
CN(c1cnc(-c2cc3occc(=O)c3cc2O)nn1)[C@@H]1CC2COC[C@H](N2)[C@@H]1F [Compound 67]	6.30 to 7.00	7.00 to 7.29	–
CCc1coc2cc(-c3ncc(N(C)[C@H]4C[C@@H]5CC[C@@H](N5)[C@H]4F)nn3)c(O)cc2c1=O (single isomer, unassigned) [Compound 96]	7.82 to 11.00	7.82 to 11.00	–
CN(c1cnc(-c2cc3ncn(C)c(=O)c3cc2O)nn1)C1CC2CC[C@@](C)(N2)[C@H]1F (stereo partly shown) [Compound 136]	7.82 to 11.00	7.82 to 11.00	–
CN(c1cnc(-c2cc3cnn(C)c(=O)c3cc2O)nn1)[C@H]1CC2CCC(N2)[C@H]1F (single isomer, unassigned) [Compound 2B]	7.82 to 11.00	7.82 to 11.00	–
CN(c1cnc(-c2cc3ccncc3cc2O)nn1)C1CC2CCC(N2)C1F (stereo not shown) [Compound 21]	6.30 to 7.00	7.30 to 7.80	–
Cc1cc(=O)c2cc(O)c(-c3ncc(N(C)[C@H]4CC5CC[C@@H](N5)[C@H]4F)nn3)cc2o1 (single isomer, unassigned) [Compound 6B]	7.82 to 11.00	7.82 to 11.00	–
Cc1cc2cc(-c3ncc(N(C)[C@H]4CC5CC[C@@H](N5)[C@H]4F)nn3)c(O)cc2c(=O)n1C [Compound 206]	7.82 to 11.00	7.82 to 11.00	–
CCn1ccc2cc(O)c(-c3ncc(N(C)[C@H]4CC5CC[C@@H](N5)[C@H]4F)nn3)cc2c1=O [Compound 84]	7.82 to 11.00	7.82 to 11.00	–
Cc1coc2cc(-c3ncc(N(C)[C@@H]4CC5CCCC(N5)[C@@H]4F)nn3)c(O)cc2c1=O (stereo partly shown) [Compound 101]	7.82 to 11.00	7.82 to 11.00	–

SMILES	pIC50 ([1]; Homo sapiens, Fibroblast)	pEC50 [2]	pIC50 [1]
CN(c1cnc(-c2cc3c(F)cn(C)c(=O)c3cc2O)nn1)[C@@H]1C[C@@]2(C)CCC(N2)[C@@H]1F [Compound 37]	7.82 to 11.00	7.82 to 11.00	–
[2H]C([2H])([2H])N(c1cnc(-c2cc3c(F)cn(CC)c(=O)c3cc2O)nn1)[C@H]1C[C@@H]2CC[C@@H](N2)[C@H]1F [Compound 201]	7.82 to 11.00	7.82 to 11.00	–
[2H]C([2H])([2H])N(c1cnc(-c2cc3c(F)cn(C([2H])([2H])[2H])c(=O)c3cc2O)nn1)[C@@H]1C[C@H]2CC[C@H](N2)[C@@H]1F [Compound 194]	7.82 to 11.00	7.82 to 11.00	–
Cc1nc2cc(O)c(-c3ncc(N(C)[C@@H]4C[C@H]5CCC(N5)[C@@H]4F)nn3)cc2nc1C [Compound 86]	7.00 to 7.29	7.00 to 7.29	–
Cc1cnc2cc(O)c(-c3ncc(N(C)[C@@H]4CC5CCCC(N5)[C@@H]4F)nn3)cc2n1 (stereo partly shown) [Compound 159]	7.30 to 7.80	7.82 to 11.00	–
[2H]C([2H])([2H])n1ncc2cc(-c3ncc(N(C)[C@H]4C[C@@H]5CCC(N5)[C@H]4F)nn3)c(O)cc2c1=O [Compound 181]	7.82 to 11.00	7.82 to 11.00	–
CN(c1cnc(-c2cc3ccn(C)c(=O)c3cc2O)nn1)C1CC2COCC(C1)N2 (stereo not shown) [Compound 147]	7.82 to 11.00	7.82 to 11.00	–
CC(C)n1ncc2cc(-c3ncc(N(C)C4CC5CCC(N5)[C@@H]4F)nn3)c(O)cc2c1=O (stereo partly shown) [Compound 29]	5.00 to 6.30	5.00 to 6.30	–
CN(c1cnc(-c2cc3nccnc3cc2O)nn1)C1CC2CCC(N2)C1F (stereo not shown) [Compound 20]	7.30 to 7.80	7.30 to 7.80	–
CN(c1cnc(-c2cc3occc(=O)c3cc2O)nn1)[C@H]1C[C@@H]2COCC(N2)[C@H]1F [Compound 68]	6.30 to 7.00	5.00 to 6.30	–
CN(c1cnc(-c2cc3occc(=O)c3cc2O)nn1)[C@H]1C[C@@H]2CCCC(N2)[C@H]1F [Compound 63]	7.30 to 7.80	7.82 to 11.00	–
CN(c1cnc(-c2cc3c(F)cn(C)c(=O)c3cc2O)nn1)C1CC2CCCC(N2)[C@H]1F (stereo partly shown) [Compound 137]	7.82 to 11.00	7.82 to 11.00	–
CN(c1cnc(-c2cc3ncn(C(F)F)c(=O)c3cc2O)nn1)[C@@H]1C[C@H]2CCC(N2)[C@@H]1F [Compound 196]	7.30 to 7.80	7.00 to 7.29	–
CN(c1cnc(-c2cc3cnn(C)c(=O)c3cc2O)nn1)C1CC2CCC(C)(N2)C1F (stereo not shown) [Compound 184]	7.82 to 11.00	7.82 to 11.00	–
Cc1cc(=O)c2cc(-c3ncc(N(C)[C@H]4C[C@@H]5CC[C@@H](N5)[C@H]4F)nn3)c(O)cc2o1 (single isomer, unassigned) [Compound 1B]	7.30 to 7.80	7.82 to 11.00	–
CN(c1cnc(-c2cc3ccn(CC(F)(F)F)c(=O)c3cc2O)nn1)[C@H]1C[C@@H]2CC[C@@H](N2)[C@H]1F [Compound 100]	7.30 to 7.80	7.82 to 11.00	–
CN(c1cnc(-c2cc3cnn(C)c(=O)c3cc2O)nn1)[C@@H]1C[C@@]2(C)CC[C@H](N2)[C@@H]1F [Compound 186]	7.30 to 7.80	7.82 to 11.00	–
CCn1cnc2cc(-c3ncc(N(C)[C@H]4CC5CCC[C@@H](N5)[C@H]4F)nn3)c(O)cc2c1=O [Compound 125]	7.82 to 11.00	7.30 to 7.80	–
Cc1cc(=O)c2cc(-c3ncc(N(C)[C@@H]4C[C@H]5CC[C@H](N5)[C@@H]4F)nn3)c(O)cc2o1 (single isomer, unassigned) [Compound 1A]	7.30 to 7.80	7.30 to 7.80	–
CNC(=O)c1ccc2cc(-c3ncc(N(C)[C@@H]4C[C@H]5CC[C@@H](C4)N5)nn3)c(O)cc2n1 [Compound 9]	–	7.82 to 11.00	–
Cc1cc(=O)c2cc(O)c(-c3ncc(N(C)[C@H]4CC5CCC[C@@H](N5)[C@H]4F)nn3)cc2o1 [Compound 127]	7.82 to 11.00	7.82 to 11.00	–
Cc1cnc2cc(O)c(-c3ncc(N(C)[C@H]4CC5CCCC(N5)[C@H]4F)nn3)cc2n1 (stereo partly shown) [Compound 160]	6.30 to 7.00	6.30 to 7.00	–
CN(c1cnc(-c2cc3c(F)cn(C)c(=O)c3cc2O)nn1)C1CC2CCCC(N2)[C@@H]1F (stereo partly shown) [Compound 138]	7.30 to 7.80	7.82 to 11.00	–
CN(c1cnc(-c2cc3c(F)cn(C)c(=O)c3cc2O)nn1)[C@H]1CC2COCC(N2)[C@H]1F (stereo partly shown) [Compound 218]	7.00 to 7.29	–	–
CCn1cc(F)c2cc(-c3ncc(N(C)[C@H]4CC5COCC(N5)[C@H]4F)nn3)c(O)cc2c1=O (stereo partly shown) [Compound 221]	5.00 to 6.30	–	–
CCn1cc(F)c2cc(-c3ncc(N(C)[C@@H]4CC5COCC(N5)[C@@H]4F)nn3)c(O)cc2c1=O (stereo partly shown) [Compound 222]	6.30 to 7.00	–	–
CN(c1cnc(-c2cc3c(F)cn(C)c(=O)c3cc2O)nn1)[C@@H]1CC2COCC(N2)[C@@H]1F (stereo partly shown) [Compound 219]	7.30 to 7.80	–	–
